From article PMC6519479 (Molecular systems design & engineering, 2018)
No end group written: not given here.

Legend:
[1] = cited from earlier work
E. coli JW0013 = type: cell-based; conditions: for MIC E. coli JW0013: JW0013, 1 h; for MIC in 20% M9 / MIC in 20% MHB / MIC in 60% M9 / MIC in 60% MHB / MIC in 100% M9 / MIC in 100% MHB: JW0013, 6 h
E. coli O157:H7 = type: cell-based; conditions: O157:H7, 1 h
E. coli MC1061 = type: cell-based; conditions: MC1061, 1 h
E. coli J2210 = type: cell-based; conditions: J2210, 1 h
E. coli JJ2487 = type: cell-based; conditions: JJ2487, 1 h
Salmonella MH91989 = type: cell-based, Salmonella enterica serovar Enteritidis; conditions: 1 h
Salmonella SL1344 = type: cell-based, Salmonella enterica serovar Typhimurium; conditions: 1 h

Row | Substance | antimicrobial activity compared to Onc18 [1] | MIC E. coli JW0013 (E. coli JW0013) [µg/mL] | MIC E. coli O157:H7 (E. coli O157:H7) [µg/mL] | MIC E. coli MC1061 (E. coli MC1061) [µg/mL] | MIC E. coli J2210 (E. coli J2210) [µg/mL] | MIC E. coli JJ2487 (E. coli JJ2487) [µg/mL] | MIC Salmonella MH91989 (Salmonella MH91989) [µg/mL] | MIC Salmonella SL1344 (Salmonella SL1344) [µg/mL] | MIC in 20% M9 (E. coli JW0013) [µg/mL] | MIC in 20% MHB (E. coli JW0013) [µg/mL] | MIC in 60% M9 (E. coli JW0013) [µg/mL] | MIC in 60% MHB (E. coli JW0013) [µg/mL] | MIC in 100% M9 (E. coli JW0013) [µg/mL] | MIC in 100% MHB (E. coli JW0013) [µg/mL]
1 | VDKPPYLPRPRPPROIYNO-NH2 [Onc72] | improved | – | – | – | – | – | – | – | – | – | – | – | – | –
2 | VDKPPYRPRPRPPRRIYNR-NH2 [VDKPPYRPRPRPPRRIYNR-NH2] | – | 0.42 ± 0.21 | 2.40 ± 0.56 | 0.20 ± 0.09 | 0.39 ± 0.18 | 0.39 ± 0.18 | 0.60 ± 0.14 | 0.42 ± 0.21 | – | – | – | – | – | –
3 | VDKKPYLPRPRPPRRIYNR-NH2 [VDKKPYLPRPRPPRRIYNR-NH2] | – | 0.60 ± 0.14 | 2.40 ± 0.56 | 0.30 ± 0.07 | 0.39 ± 0.18 | 0.60 ± 0.14 | 0.60 ± 0.14 | 0.60 ± 0.14 | – | – | – | – | – | –
4 | VDKPPYLPRPRPPRRIYNR-NH2 [VDKPPYLPRPRPPRRIYNR-NH2, reference compound] | – | 0.83 ± 0.42 | 3.14 ± 1.28 | 0.30 ± 0.07 | 0.79 ± 0.35 | 0.60 ± 0.14 | 0.60 ± 0.14 | 0.60 ± 0.14 | 0.60 ± 0.14 | 0.79 ± 0.35 | 1.20 ± 0.28 | 1.20 ± 0.28 | 2.40 ± 0.56 | 2.40 ± 0.56
5 | VDKKPYKPRPRPPRRIYNR-NH2 [VDKKPYKPRPRPPRRIYNR-NH2] | – | 0.30 ± 0.07 | 1.57 ± 0.68 | 0.15 ± 0.03 | 0.20 ± 0.09 | 0.30 ± 0.07 | 0.42 ± 0.21 | 0.42 ± 0.21 | 0.30 ± 0.09 | 0.20 ± 0.09 | 1.57 ± 0.68 | 0.79 ± 0.35 | 9.60 ± 2.00 | 2.40 ± 0.56
6 | VDKKPYRPRPRPPRRIYNR-NH2 [VDKKPYRPRPRPPRRIYNR-NH2] | – | 0.39 ± 0.18 | 1.57 ± 0.68 | 0.15 ± 0.03 | 0.30 ± 0.07 | 0.30 ± 0.07 | 0.39 ± 0.18 | 0.39 ± 0.18 | 0.39 ± 0.18 | 0.20 ± 0.09 | 1.20 ± 0.28 | 0.60 ± 0.14 | 9.60 ± 2.00 | 2.40 ± 0.56
7 | VDKPPYKPRPRPPRRIYNR-NH2 [VDKPPYKPRPRPPRRIYNR-NH2] | – | 0.60 ± 0.14 | 2.40 ± 0.56 | 0.15 ± 0.03 | 0.30 ± 0.07 | 0.79 ± 0.35 | 0.60 ± 0.14 | 0.60 ± 0.14 | – | – | – | – | – | –
8 | VDKRPYLPRPRPPRRIYNR-NH2 [VDKRPYLPRPRPPRRIYNR-NH2] | – | 0.83 ± 0.42 | 2.40 ± 0.56 | 0.30 ± 0.07 | 0.60 ± 0.14 | 0.39 ± 0.18 | 0.60 ± 0.14 | 0.60 ± 0.14 | – | – | – | – | – | –
9 | VDKPPYLPRPRPPRrIYNr-NH2 [Onc112] | improved | – | – | – | – | – | – | – | – | – | – | – | – | –
10 | VDKRPYRPRPRPPRRIYNR-NH2 [VDKRPYRPRPRPPRRIYNR-NH2] | – | 0.39 ± 0.18 | 1.66 ± 0.82 | 0.15 ± 0.03 | 0.30 ± 0.07 | 0.42 ± 0.21 | 0.42 ± 0.21 | 0.39 ± 0.18 | – | – | – | – | – | –
